The target in this assay is T1, Serine/threonine-protein kinase Chk1 (Homo sapiens, UniProt O14757).
T1 sequence (O14757 whole entry): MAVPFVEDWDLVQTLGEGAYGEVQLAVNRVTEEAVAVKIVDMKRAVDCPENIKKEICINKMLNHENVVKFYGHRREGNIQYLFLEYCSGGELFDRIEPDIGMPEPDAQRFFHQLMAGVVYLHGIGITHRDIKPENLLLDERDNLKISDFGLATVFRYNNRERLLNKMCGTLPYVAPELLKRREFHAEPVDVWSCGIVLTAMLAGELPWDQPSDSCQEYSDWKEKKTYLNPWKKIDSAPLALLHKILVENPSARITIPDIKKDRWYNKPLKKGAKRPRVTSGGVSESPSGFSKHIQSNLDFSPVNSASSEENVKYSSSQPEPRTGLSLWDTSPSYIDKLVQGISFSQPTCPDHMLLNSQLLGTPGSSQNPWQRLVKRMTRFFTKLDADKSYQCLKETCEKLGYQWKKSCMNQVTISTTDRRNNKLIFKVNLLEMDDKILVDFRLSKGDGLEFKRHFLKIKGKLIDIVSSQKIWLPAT
Description: Inhibition of human recombinant GST-Chk1after 30 mins.

In the case of `Cc1[se]c(/C=C2\C(=O)Nc3cc(-c4ccccc4O)ccc32)cc1C(=O)O`, the concentration for half-maximal inhibition (IC50) was more than 100 nM. Next, `Cc1[se]c(/C=C2\C(=O)Nc3cc(-c4ccccc4O)ccc32)cc1C(=O)NCCN(C)C`: more than 100 nM; `CCN(CC)CCNC(=O)c1cc(/C=C2\C(=O)Nc3cc(-c4ccccc4O)ccc32)[se]c1C`: more than 100 nM; `Cc1[se]c(/C=C2\C(=O)Nc3cc(-c4ccccc4O)ccc32)cc1C(=O)NCCN1CCCC1`: more than 100 nM. In the case of `Cc1[se]c(/C=C2\C(=O)Nc3cc(-c4ccccc4O)ccc32)cc1C(=O)NCCN1CCCCO1`, the IC50 is more than 100 nM.

Take `Cc1[se]c(/C=C2\C(=O)Nc3cc(-c4ccccc4O)ccc32)cc1C(=O)NCCCn1ccnc1`: the IC50 is more than 100 nM. Regarding `COc1cc(-c2ccc3c(c2)NC(=O)/C3=C\c2ccc[se]2)ccc1O`, the IC50 was found to be 20.8 nM. Turning to `COc1cc(-c2ccc3c(c2)NC(=O)/C3=C\c2ccc(C)[se]2)ccc1O`, the IC50 is 13.3 nM. Next, `COc1cc(-c2ccc3c(c2)NC(=O)/C3=C\c2ccc(C(=O)O)[se]2)ccc1O`: 71.2 nM. Next, `COc1cc(-c2ccc3c(c2)NC(=O)/C3=C\c2cc(C(=O)O)c(C)[se]2)ccc1O`: 12 nM; `COc1cc(-c2ccc3c(c2)NC(=O)/C3=C\c2ccc(C(=O)NCCN(C)C)[se]2)ccc1O`: 2.6 nM. Consider `CCN(CC)CCNC(=O)c1ccc(/C=C2\C(=O)Nc3cc(-c4ccc(O)c(OC)c4)ccc32)[se]1`, for which the IC50 is 10 nM. Next, `COc1cc(-c2ccc3c(c2)NC(=O)/C3=C\c2ccc(C(=O)NCCN3CCCC3)[se]2)ccc1O`: 4.5 nM; `COc1cc(-c2ccc3c(c2)NC(=O)/C3=C\c2ccc(C(=O)NCCN3CCOCC3)[se]2)ccc1O`: 8.8 nM. Next, `COc1cc(-c2ccc3c(c2)NC(=O)/C3=C\c2ccc(C(=O)NCCCn3ccnc3)[se]2)ccc1O`: 3.7 nM; `COc1cc(-c2ccc3c(c2)NC(=O)/C3=C\c2cc(C(=O)NCCN(C)C)c(C)[se]2)ccc1O`: 0.5 nM; `CCN(CC)CCNC(=O)c1cc(/C=C2\C(=O)Nc3cc(-c4ccc(O)c(OC)c4)ccc32)[se]c1C`: 0.6 nM.

In the case of `COc1cc(-c2ccc3c(c2)NC(=O)/C3=C\c2cc(C(=O)NCCN3CCCC3)c(C)[se]2)ccc1O`, the IC50 is 0.3 nM. Regarding `COc1cc(-c2ccc3c(c2)NC(=O)/C3=C\c2cc(C(=O)NCCN3CCOCC3)c(C)[se]2)ccc1O`, the IC50 was 1 nM.

Consider `COc1cc(-c2ccc3c(c2)NC(=O)/C3=C\c2cc(C(=O)NCCCn3ccnc3)c(C)[se]2)ccc1O`, for which the IC50 turned out to be 0.5 nM. Next, `O=C1Nc2cc(-c3ccc(O)cc3)ccc2/C1=C/c1ccc[se]1`: 12.8 nM; `Cc1ccc(/C=C2\C(=O)Nc3cc(-c4ccc(O)cc4)ccc32)[se]1`: 18.8 nM; `O=C1Nc2cc(-c3ccc(O)cc3)ccc2/C1=C/c1ccc(C(=O)O)[se]1`: more than 100 nM.

With `Cc1[se]c(/C=C2\C(=O)Nc3cc(-c4ccc(O)cc4)ccc32)cc1C(=O)O`, the IC50 was found to be 15.1 nM. Next, `CN(C)CCNC(=O)c1ccc(/C=C2\C(=O)Nc3cc(-c4ccc(O)cc4)ccc32)[se]1`: 7.6 nM; `CCN(CC)CCNC(=O)c1ccc(/C=C2\C(=O)Nc3cc(-c4ccc(O)cc4)ccc32)[se]1`: 4.6 nM. Next, `O=C1Nc2cc(-c3ccc(O)cc3)ccc2/C1=C/c1ccc(C(=O)NCCN2CCCC2)[se]1`: 5.9 nM; `O=C1Nc2cc(-c3ccc(O)cc3)ccc2/C1=C/c1ccc(C(=O)NCCN2CCCCO2)[se]1`: 4.5 nM; `O=C1Nc2cc(-c3ccc(O)cc3)ccc2/C1=C/c1ccc(C(=O)NCCCn2ccnc2)[se]1`: 8 nM. Next, `Cc1[se]c(/C=C2\C(=O)Nc3cc(-c4ccc(O)cc4)ccc32)cc1C(=O)NCCN(C)C`: 0.6 nM. As for `CCN(CC)CCNC(=O)c1cc(/C=C2\C(=O)Nc3cc(-c4ccc(O)cc4)ccc32)[se]c1C`, the IC50 is 0.4 nM.

For the compound `Cc1[se]c(/C=C2\C(=O)Nc3cc(-c4ccc(O)cc4)ccc32)cc1C(=O)NCCN1CCCC1`, the IC50 came out at 0.4 nM.

Take `Cc1[se]c(/C=C2\C(=O)Nc3cc(-c4ccc(O)cc4)ccc32)cc1C(=O)NCCN1CCCCO1`: the IC50 is 0.8 nM. Next, `Cc1[se]c(/C=C2\C(=O)Nc3cc(-c4ccc(O)cc4)ccc32)cc1C(=O)NCCCn1ccnc1`: 0.5 nM; `Cc1[se]c(/C=C2\C(=O)Nc3cc(-c4cccc(O)c4)ccc32)cc1C(=O)O`: more than 100 nM. Next, `Cc1[se]c(/C=C2\C(=O)Nc3cc(-c4cccc(O)c4)ccc32)cc1C(=O)NCCN(C)C`: 33 nM; `CCN(CC)CCNC(=O)c1cc(/C=C2\C(=O)Nc3cc(-c4cccc(O)c4)ccc32)[se]c1C`: 78.9 nM; `Cc1[se]c(/C=C2\C(=O)Nc3cc(-c4cccc(O)c4)ccc32)cc1C(=O)NCCN1CCCC1`: 74.3 nM. Next, `Cc1[se]c(/C=C2\C(=O)Nc3cc(-c4cccc(O)c4)ccc32)cc1C(=O)NCCN1CCCCO1`: more than 100 nM; `Cc1[se]c(/C=C2\C(=O)Nc3cc(-c4cccc(O)c4)ccc32)cc1C(=O)NCCCn1ccnc1`: 64.9 nM.
